# Test results taken from patent publication US11344510B2, “Arylcyclohexylamine derivatives and their use in the treatment of psychiatric disorders” (Gilgamesh Pharmaceuticals, Inc., priority 2019, dated 2022).
# Legend:
# [1] = molecular target: T1, norepinephrine transporter (NET) (Homo sapiens, UniProt P23975); test: Fluorescent substrate uptake inhibition, NET; assay type: cell-based; settings: for inhibition at 10 µM: HEK293 cells expressing NET
# T1 construct: expressed in transfected cells; host or cells: HEK293
# T1 sequence (P23975 whole entry, species assumed): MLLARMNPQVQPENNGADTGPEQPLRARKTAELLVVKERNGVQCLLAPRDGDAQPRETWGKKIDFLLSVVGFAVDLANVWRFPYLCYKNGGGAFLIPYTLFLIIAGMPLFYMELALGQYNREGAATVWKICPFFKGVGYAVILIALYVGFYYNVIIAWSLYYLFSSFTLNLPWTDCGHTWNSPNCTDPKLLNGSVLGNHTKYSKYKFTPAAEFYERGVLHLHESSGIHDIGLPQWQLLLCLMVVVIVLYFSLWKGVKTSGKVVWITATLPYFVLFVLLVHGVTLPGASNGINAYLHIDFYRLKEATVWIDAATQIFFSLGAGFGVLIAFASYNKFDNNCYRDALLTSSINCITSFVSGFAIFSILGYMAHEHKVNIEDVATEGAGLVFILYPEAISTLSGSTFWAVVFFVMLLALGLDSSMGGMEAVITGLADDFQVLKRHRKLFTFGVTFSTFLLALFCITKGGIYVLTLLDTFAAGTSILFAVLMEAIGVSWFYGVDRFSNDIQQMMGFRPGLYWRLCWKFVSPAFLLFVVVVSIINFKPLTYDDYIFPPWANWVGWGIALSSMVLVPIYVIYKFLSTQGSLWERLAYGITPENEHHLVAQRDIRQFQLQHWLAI
# [2] = HLM stability (Low Activity, Alternative Method); assay type: in vitro ADME; settings: both sexes, human, liver microsomes, pH 7.4, Condition 1 column, values marked *: Low Activity, 0.50 mg protein/mL
# Method in brief: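 Pooled male and female human liver microsomes (0.50 mg/mL) in 100 mM PBS pH 7.4 with 1 mM MgCl2 and 1 mM NADPH, compound 1 μM (1.0% solvent), 37° C with shaking, six time points over 60 min. Parent remaining measured by LC-MS/MS; kel, t1/2 and Clint from linear regression of ln(AUC) versus time.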
# [3] = molecular target: T2, serotonin transporter (SERT) (Homo sapiens, UniProt P31645); test: Fluorescent substrate uptake inhibition, SERT; assay type: cell-based; settings: for inhibition at 10 µM: HEK293 cells expressing SERT
# T2 construct: expressed in transfected cells; host or cells: HEK293
# T2 sequence (P31645 whole entry, species assumed): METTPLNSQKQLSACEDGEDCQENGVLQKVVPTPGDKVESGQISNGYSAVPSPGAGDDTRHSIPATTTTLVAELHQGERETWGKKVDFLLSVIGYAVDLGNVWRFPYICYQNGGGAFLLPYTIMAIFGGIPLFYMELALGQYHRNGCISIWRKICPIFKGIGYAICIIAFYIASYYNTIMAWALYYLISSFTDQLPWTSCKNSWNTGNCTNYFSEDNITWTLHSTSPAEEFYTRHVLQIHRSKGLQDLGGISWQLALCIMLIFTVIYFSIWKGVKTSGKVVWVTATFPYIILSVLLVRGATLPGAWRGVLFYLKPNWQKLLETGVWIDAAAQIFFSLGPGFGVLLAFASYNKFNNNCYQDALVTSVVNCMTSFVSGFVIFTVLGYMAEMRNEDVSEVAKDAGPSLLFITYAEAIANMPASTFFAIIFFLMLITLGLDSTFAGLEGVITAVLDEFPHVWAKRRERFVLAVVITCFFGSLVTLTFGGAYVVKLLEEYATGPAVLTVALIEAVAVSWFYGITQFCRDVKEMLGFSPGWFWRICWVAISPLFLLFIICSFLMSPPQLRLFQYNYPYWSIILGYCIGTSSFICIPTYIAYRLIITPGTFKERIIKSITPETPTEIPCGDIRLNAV
# [4] = molecular target: T3, dopamine transporter (DAT) (Homo sapiens, UniProt Q01959); test: Fluorescent substrate uptake inhibition, DAT; assay type: cell-based; settings: for inhibition at 10 µM: CHO cells expressing DAT; for inhibitory activity at DAT: in words
# T3 construct: expressed in transfected cells; host or cells: CHO (uptake)
# T3 sequence (Q01959 whole entry, species assumed): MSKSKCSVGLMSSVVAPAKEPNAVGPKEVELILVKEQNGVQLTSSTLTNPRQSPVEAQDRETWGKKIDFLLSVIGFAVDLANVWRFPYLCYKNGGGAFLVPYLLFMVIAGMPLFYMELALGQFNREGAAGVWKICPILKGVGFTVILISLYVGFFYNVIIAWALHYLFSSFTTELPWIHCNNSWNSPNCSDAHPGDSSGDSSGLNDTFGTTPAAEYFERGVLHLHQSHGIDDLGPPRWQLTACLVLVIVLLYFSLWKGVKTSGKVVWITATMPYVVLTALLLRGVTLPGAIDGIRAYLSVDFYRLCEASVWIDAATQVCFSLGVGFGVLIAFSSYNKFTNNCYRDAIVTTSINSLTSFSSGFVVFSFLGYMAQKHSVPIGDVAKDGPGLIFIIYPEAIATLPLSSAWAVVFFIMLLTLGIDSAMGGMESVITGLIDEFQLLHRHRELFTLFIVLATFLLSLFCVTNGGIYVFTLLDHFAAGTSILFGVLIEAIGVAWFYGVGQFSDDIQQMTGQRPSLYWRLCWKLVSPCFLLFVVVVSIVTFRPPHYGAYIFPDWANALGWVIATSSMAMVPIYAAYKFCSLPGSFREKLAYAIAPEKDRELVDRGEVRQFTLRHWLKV
# DAT = molecular target: T4, DAT (Homo sapiens, UniProt Q01959); test: DAT radioligand binding with [3H]WIN35,428
# T4 construct: expressed in transfected cells; host or cells: CHO (uptake)
# T4 sequence (Q01959 whole entry, species assumed): as above
# Description: (§1) Radioligand Binding. Affinity of the test compounds for SERT, NET, and DAT was determined in radioligand binding experiments with [^3H]imipramine, [^3]nisoxetine, and [^3H]WIN35,428, respectively, by WuXi AppTec (Hong Kong) Limited, under the conditions described in Table 15.
# NET = molecular target: T5, NET (Homo sapiens, UniProt P23975); test: NET radioligand binding with [3H]nisoxetine
# T5 construct: expressed in transfected cells; host or cells: HEK293
# T5 sequence (P23975 whole entry, species assumed): as the sequence (P23975 whole entry, species assumed) above
# Description: as §1
# [5] = molecular target: MK-801 binding site of the N-methyl-D-aspartate receptor (NMDAR); test: NMDAR radioligand binding with [3H]MK-801, Method B; set-up: species or system Sprague Dawley rat; settings: MK-801 site, Method B, male Sprague Dawley rat cortex, 5.0 nM [3H]MK-801; read-out: NMDAR Ki ± SEM
# Description: Radioligand Binding—Method B. Affinity of the test compounds for NMDAR was determined in radioligand binding experiments with [^3H]MK-801 by WuXi AppTec (Hong Kong) Limited, under the conditions described in Table 13.
# [6] = molecular target: T6, vesicular monoamine transporter 2 (VMAT2) (Homo sapiens, UniProt Q05940); test: Fluorescent substrate uptake inhibition, VMAT2; assay type: cell-based; settings: 10 μM, transfected cells
# T6 construct: expressed in transfected cells
# T6 sequence (Q05940 whole entry, species assumed): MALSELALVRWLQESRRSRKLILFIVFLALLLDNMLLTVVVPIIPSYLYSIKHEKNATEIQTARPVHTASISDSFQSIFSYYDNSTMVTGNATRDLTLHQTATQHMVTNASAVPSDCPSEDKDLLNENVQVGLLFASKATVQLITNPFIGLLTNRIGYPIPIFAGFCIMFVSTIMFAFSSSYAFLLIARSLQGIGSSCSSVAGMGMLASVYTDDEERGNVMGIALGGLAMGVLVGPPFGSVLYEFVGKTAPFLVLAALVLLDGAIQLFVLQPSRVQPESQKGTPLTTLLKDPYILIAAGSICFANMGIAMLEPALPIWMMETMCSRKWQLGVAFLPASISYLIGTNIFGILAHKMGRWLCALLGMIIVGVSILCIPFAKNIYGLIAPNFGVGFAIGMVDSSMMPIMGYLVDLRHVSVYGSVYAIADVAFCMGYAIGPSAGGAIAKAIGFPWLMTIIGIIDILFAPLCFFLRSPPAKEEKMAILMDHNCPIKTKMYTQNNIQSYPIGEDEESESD
# SERT = molecular target: T7, SERT (Homo sapiens, UniProt P31645); test: SERT radioligand binding with [3H]imipramine
# T7 construct: expressed in transfected cells; host or cells: HEK293
# T7 sequence (P31645 whole entry, species assumed): as the sequence (P31645 whole entry, species assumed) above
# Description: as §1
# [7] = MLM stability (Low Activity); assay type: in vitro ADME, CD-1 mice; settings: male, CD-1, mouse, liver microsomes, pH 7.4, Condition 1 (Low Activity), 0.50 mg protein/mL
# Method in brief: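 Pooled male CD-1 mouse liver microsomes (0.50 mg/mL) with 1 μM compound and 1 mM NADPH in 100 mM PBS pH 7.4 with 1 mM MgCl2, 37 °C, six time points over 60 min. Parent remaining by LC-MS/MS; kel, t1/2 and Clint from linear regression of ln(AUC) versus time.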
# [8] = RLM stability (Low Activity); assay type: in vitro ADME, Sprague Dawley rats; settings: male, Sprague Dawley, rat, liver microsomes, pH 7.4, Condition 1 (Low Activity), 0.50 mg protein/mL
# Method in brief: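 Pooled male Sprague Dawley rat liver microsomes (0.50 mg/mL) in PBS pH 7.4 with 1 mM MgCl2 and 1 mM NADPH; compound 1 μM, 1.0% solvent, 37° C. Six time points over 60 min, parent remaining by LC-MS/MS; kel, t1/2 and Clint from linear regression of ln(AUC) versus time.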
# [9] = HLM stability (High Activity); assay type: in vitro ADME; settings: both sexes, human, liver microsomes, pH 7.4, Condition 2 (High Activity), 1.0 mg protein/mL
# Method in brief: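 Pooled male and female human liver microsomes, 1.0 mg protein/mL, in 100 mM PBS pH 7.4 with NADPH-regenerating system; compound 1 μM at 37° C, five time points over 60 min. Parent remaining by LC-MS/MS; kel, t1/2 and Clint from linear regression of ln(AUC) versus time.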
# [10] = MLM stability (High Activity); assay type: in vitro ADME, BALB/c mice; settings: male, BALB/c, mouse, liver microsomes, pH 7.4, Condition 2 (High Activity), 1.0 mg protein/mL
# Description: MLM Stability (High Activity). Pooled MLM from male BALB/c mice (XenoTech M3000) were used. Microsomal incubations were carried out in 96-well plates in 5 aliquots of 40 μL each (one for each time point). Liver microsomal incubation medium consisted of PBS (100 mM, pH 7.4), MgCl2 (3.3 mM), NADPH (3 mM), glucose-6-phosphate (5.3 mM), and glucose-6-phosphate dehydrogenase (0.67 units/mL), with 1.0 mg of liver microsomal protein per mL. Control incubations were performed by replacing the NADPH-cofactor system with PBS. Test compounds (1 μM, final solvent concentration 1.6%) were incubated with microsomes at 37° C., shaking at 100 rpm. Incubations were performed in duplicate. Five time points over 60 minutes were analyzed. The reactions were stopped by adding 9 volumes of 90% acetonitrile-water to incubation aliquots, followed by protein sedimentation by centrifugation at 5500 rpm for 3 minutes. Supernatants were analyzed for parent compound remaining using a fit-for-purpose liquid chromatography-tandem mass spectrometry (LC-MS/MS) method, with authentic samples of each analyte used for identity confirmation.
# Data Analysis. The elimination constant (kel), half-life (t1/2) and intrinsic clearance (Clint) were determined in a plot of […] versus time, using linear regression analysis.
compound,measurement,setting,value
"CC(C)N[C@]1(c2ccccc2)CCCCC1=O [Compound 28S, (S)-2-(isopropylamino)-2-phenylcyclohexan-1-one]",IC50,[1],4.7 µM
same,inhibition at 10 µM,[1],48.7%
same,half-life at 1 μM,[2],76.6 min
same,microsomal CLint at 1 μM,[2],18.1 µL/min/mg
same,IC50,[3],8.5 µM
same,inhibition at 10 µM,[3],22%
same,IC50,[4],1.3 µM
same,inhibition at 10 µM,[4],58%
same,inhibitory activity at DAT,[4],significant inhibitory activity at DAT
same,Ki,DAT,6 µM
same,Ki,NET,13.5 µM
same,Ki,[5],3 µM
same,inhibition at 10 µM,[6],-32.7%
same,Ki,SERT,12.3 µM
same,half-life at 1 μM,[7],14.8 min
same,microsomal CLint at 1 μM,[7],94 µL/min/mg
same,half-life at 1 μM,[8],18.9 min
same,microsomal CLint at 1 μM,[8],73.4 µL/min/mg
"O=C1CCCC[C@]1(c1ccccc1)N1CCCCC1 [Compound 26R, (R)-2-phenyl-2-(piperidin-1-yl)cyclohexan-1-one]",IC50,[1],23.7 µM
same,inhibition at 10 µM,[1],19.5%
same,IC50,[3],> 100 µM
same,inhibition at 10 µM,[3],30.4%
same,half-life at 1 μM,[9],63.2 min
same,microsomal CLint at 1 μM,[9],11 µL/min/mg
same,IC50,[4],5 µM
same,inhibition at 10 µM,[4],58%
same,inhibitory activity at DAT,[4],significant inhibitory activity at DAT
same,Ki,DAT,70.4 µM
same,Ki,NET,> 87.4 µM
same,Ki,[5],3.7 µM
same,inhibition at 10 µM,[6],-12.3%
same,Ki,SERT,22.5 µM
same,half-life at 1 μM,[10],10.6 min
same,microsomal CLint at 1 μM,[10],65 µL/min/mg
"O=C1CCCC[C@@]1(c1ccccc1)N1CCCCC1 [Compound 26S, (S)-2-phenyl-2-(piperidin-1-yl)cyclohexan-1-one]",IC50,[1],8.9 µM
same,inhibition at 10 µM,[1],16.1%
same,IC50,[3],44 µM
same,inhibition at 10 µM,[3],43%
same,half-life at 1 μM,[9],101 min
same,microsomal CLint at 1 μM,[9],7 µL/min/mg
same,IC50,[4],16.4 µM
same,inhibition at 10 µM,[4],33.7%
same,Ki,DAT,79.5 µM
same,Ki,NET,> 87.4 µM
same,Ki,[5],0.52 µM
same,inhibition at 10 µM,[6],22.9%
same,Ki,SERT,8.2 µM
same,half-life at 1 μM,[10],12.3 min
same,microsomal CLint at 1 μM,[10],56 µL/min/mg
